# Data taken from US20220298225A1, “METHODS AND COMPOSITIONS FOR TREATING CANCER WITH COLLAGEN BINDING DRUG CARRIERS” (The University of Chicago, priority 2019, published 2022).
# Tests used:
# MMTV-PyMT cells = assay: Cellular uptake of Dox-conjugates (confocal microscopy); assay type: cell-based, mouse; settings: after 1 h of incubation, 50 μM equivalent of Dox
# Protocol: To evaluate the cellular uptake of Dox-conjugates, MMTV-PyMT cells were seeded in 96 well high content imaging plate (Corning) at 5000 cells/well and incubated overnight. […] After the incubation, cells were washed twice, treated with 75 nM of Lysotracker Deep Red and further incubated 30 min at 37° C. Cells were washed twice and observed by IX83 microscope (Olympus) with ×60 magnification. Images were processed using ImageJ software (NIH). Scale bar; 20 μm.
# [1] = mouse models; cited from earlier work
# MMTV-PyMT breast cancer [2] = assay: MMTV-PyMT murine breast cancer model, anti-tumor efficacy; assay type: in vivo, mouse; settings: single i.v. injection 5 mg/kg Dox basis on day 7
# Protocol: The MMTV-PyMT murine breast cancer model was prepared as described previously (9). A total of 5×10^5 MMTV-PyMT cells suspended in 50 μL of PBS were injected subcutaneously into the mammary gland on the right side of each mouse. […] Tumors were measured with a digital caliper at indicated time points, and volumes were calculated as ellipsoids, where V=4/3×3.14×depth/2×width/2×height/2. Mice were sacrificed when tumor volume had reached over 500 mm^3 or when active ulceration was observed. For the therapeutic experiment, FVB mice originated from Charles River origin were used. […] The proportion of mice from different providers was equalized among all groups.
# MMTV-PyMT breast cancer [3] = assay: Tumor-infiltrating lymphocytes by flow cytometry in MMTV-PyMT model; assay type: in vivo, mouse; settings: 7 days after treatment, 5 mg/kg
# Protocol: MMTV-PyMT model was prepared as described above. […] Mice were sacrificed on day 14. Cell suspensions were obtained from each tumor as described previously (9). Tumors were harvested and digested in Dulbecco's Modified Eagle Medium (DMEM) supplemented with 2% FBS, 2 mg/mL collagenase D and 40 μg/mL DNase I (Roche) for 30 min at 37° C. Single-cell suspensions were obtained by gently disrupting the organs through a 70 μm cell strainer. Red blood cells were lysed with ACK lysing buffer (Quality Biological). Fixable live/dead cell discrimination was performed using Fixable Viability Dye eFluor 455 (eBioscience) according to the manufacturer's instructions. Following a washing step, cells were stained with specific antibodies for 20 min on ice prior to fixation. Following antibodies were used to stain the cells: CD3 (145-2C11, BD Biosciences), CD4 (RM4-5, BD Biosciences), CD8α (53-6.7, BD Biosciences), CD45 (30-F11, BD Biosciences), and NK1.1 (PK136, BD Biosciences). All flow cytometric analyses were done using a Fortessa flow cytometer (BD Biosciences) and analyzed using FlowJo software (Tree Star).
# [4] = Toxicity profiles in tumor-free FVB mice; settings: 20 mg/kg Dox basis
# Protocol: Blood samples were collected from each mouse in EDTA-coated tube by submandibular bleeding on day 3 and day 6 after injection for plasma cytokine analysis and hematological analysis. Body weight of each mouse was measured at indicated time points. On day 16, mice were sacrificed and organs were harvested. Spleens were weighed, and the other organs were used for histological analysis. Mice were sacrificed when more than 15% decrease of initial body weight was observed.
# Blood samples were analyzed using COULTER Ac⋅T 5diff CP hematology analyzer (Beckman coulter) according to the manufacturer's instructions.
# Blood plasma was collected from whole blood sample as described above and stored at −20° C. until use. Cytokine concentrations in plasma were measured using Ready-SET-Go! ELISA kits (eBioscience) and Can Get Signal solution (TOYOBO) according to manufacturer's instructions.
# Organs were fixed with 2% paraformaldehyde in PBS overnight. After embedding in paraffin, blocks were cut into 5 μm sections, followed by H&E staining.
# B = assay: B
# Protocol: Table printed on a drawing sheet, FIG. 2A-D
# Blood plasma was collected at indicated time points. […] (B) Plasma half-lives of Dox were calculated using two-phase exponential decay: MFI (t)=Ae^−αt+Be^−βt. t½, α, fast clearance half-life; t½, β, slow clearance half-life. […] At the indicated time points, tumors were harvested, and the amount of Dox within the tumors was quantified (mean±SEM. n=5 for 2 h, n=7 for 24 h per group). […] 1 h after injection, tumors were harvested and fluorescence was analyzed by confocal microscopy. Tissues were also stained with DAPI and anti-CD31 antibody. Scale bar=100 μm. Representative images of 3 tumors, each. Two experimental replicates. Statistical analyses were done using ANOVA with Tukey's test. *p<0.05; **p<0.01; N.S.=not significant.
smiles,measurement,setting,value
"COc1cccc2c1C(=O)c1c(O)c3c(c(O)c1C2=O)C[C@@](O)(C(=O)CO)C[C@@H]3O[C@H]1C[C@H](N)[C@H](O)[C@H](C)O1 [Dox, Doxorubicin]",intracellular localization of Dox fluorescence,MMTV-PyMT cells,"detected in cytoplasm, intracellular acidic organelles, and preferentially in the nucleus"
same,cumulative dose that irreversibly damages cardiac tissue,[1],15 mg/kg
COc1cccc2c1C(=O)c1c(O)c3c(c(O)c1C2=O)C[C@@](O)(/C(CO)=N/NC(=O)CCCCCN1C(=O)C=CC1=O)C[C@@H]3O[C@H]1C[C@H](N)[C@H](O)[C@H](C)O1 [aldoxorubicin],tumor growth,MMTV-PyMT breast cancer [2],did not
same,number of CD4+ T cells within the tumor per unit tumor mass,MMTV-PyMT breast cancer [3],not
same,number of CD8+ T cells within the tumor per unit tumor mass,MMTV-PyMT breast cancer [3],not
same,number of NK cells within the tumor per unit tumor mass,MMTV-PyMT breast cancer [3],not
same,plasma concentration of IFN-γ,[4]; day 3,increased
same,plasma concentration of IL-5,[4]; day 3,increased
same,plasma concentration of IL-6,[4]; day 3,increased
same,plasma concentration of TNF-α,[4]; day 3,increased
same,white blood cell (WBC) counts,[4]; day 3,significant decrease
same,hematocrit,[4]; day 6,significant decrease
same,hemoglobin concentration,[4]; day 6,significant decrease
same,red blood cell (RBC) counts,[4]; day 6,significant decrease
same,splenomegaly (spleen weight),[4]; day 16,induced splenomegaly
COc1cccc2c1C(=O)c1c(O)c3c(c(O)c1C2=O)C[C@@](O)(/C(CO)=N/NC(=O)CCCCCN1C(=O)C=CC1=O)C[C@@H]3O[C@H]1C[C@H](N)[C@H](O)[C@H](C)O1 [Aldoxorubicin],"t½, α",B,2.4 ± 0.168 min
same,"t½, β",B,22.6 ± 3.3 h
